{"source": "BindingDB's records for doi:10.1016/s0960-894x(01)00278-5", "about": "(Pharmacia, 2001)"}
{"assay": "Binding affinity towards guinea pig Opioid receptor kappa 1 using radioligand [3H]U69,593", "units": {"Ki": "µM"}}
{"smiles": "CN(C)C(=O)c1ccc2c3c1OC1C(O)C=C[C@H]4[C@@H](C2)N(C)CC[C@]314", "note": "(stereo partly drawn) [4,10N,10N-trimethyl-14-hydroxy-(1S,5R,17R)-12-oxa-4-azapentacyclo[9.6.1.01,13.05,17.07,18]octadeca-7,9,11(18),15-tetraene-10-carboxamide]", "Ki": "> 10"}
{"smiles": "CNC(=O)c1ccc2c3c1OC1C(O)C=C[C@H]4[C@@H](C2)N(C)CC[C@]314", "note": "(stereo partly drawn) [4,10N-dimethyl-14-hydroxy-(1S,5R,17R)-12-oxa-4-azapentacyclo[9.6.1.01,13.05,17.07,18]octadeca-7,9,11(18),15-tetraene-10-carboxamide]", "Ki": "> 10"}
{"smiles": "CN1CC[C@]23c4c5ccc(C(N)=O)c4OC2C(O)C=C[C@H]3[C@H]1C5", "note": "(stereo partly drawn) [14-hydroxy-4-methyl-(1S,5R,17R)-12-oxa-4-azapentacyclo[9.6.1.01,13.05,17.07,18]octadeca-7,9,11(18),15-tetraene-10-carboxamide]", "Ki": 1.9}
